Experimental findings from the NIST ThermoML archive (doi:10.1016/j.fluid.2014.07.041) are described below.

Numbers after ± are expanded uncertainties.

The conditions of data set [1]: 298.15 K; 101.33 kPa; Liquid; Vibrating tube method.
Data set [2] is described as follows: Boiling temperature at pressure P. The note with it: 101.33 kPa; Liquid; Ebulliometric method (Recirculating still).

For the compound `COCCO` [2-methoxyethan-1-ol], the mass density in data set [1] was determined as 965.31 ± 2 kg/m3. Further, the “Boiling temperature at pressure P” value in data set [2] worked out at 124.52 ± 0.1 °C.
For `CCOCCO` [2-ethoxyethan-1-ol], in that order: 928.73 ± 2 kg/m3 and 135.47 ± 0.1 °C.
Consider `CC1CCCCC1` [methylcyclohexane], for which the mass density in data set [1] amounted to 766.29 ± 2 kg/m3. In addition, the “Boiling temperature at pressure P” value in data set [2] worked out at 100.73 ± 0.1 °C.
